Values joined by “and” are separate entries in the source; they are usually repeats but may differ in a detail not shown here. Identical values can stand only once. Like-named read-outs stand apart in the source and are kept apart here.
Key:
[1] = tested on: leukocytes / dysfunctional leukocyte precursors
Protocol: (§1) Depending on the dose, the infusion therapy was applied for 3-5 hours.

[2] = tested on: circulating tumour cells (CTCs)
Protocol: as §1

[3] = Clinical observation of patients during and after choline infusion therapy (vital parameters, tolerability, condition)
[4] = tested on: circulating tumour cells (CTCs) in the blood; details: in vitro; tumour cells in blood of 13 patients (breast, colon, prostate, pancreas cancer); MAINTRAC
From the text: This method allows the detection of smallest amounts of tumour cells in blood and other body fluids (Pachmann K., Clement J. H., Schneider C.-P., Willen B., Camara O., Pachmann U., Hoeffken K., Standardized quantification of circulating peripheral tumour cells from lung and breast cancer. Clin. Chem. Lab-Med., 2005, 43; 617-627).

[5] = mean of Table 2 leukaemia measurements, one i.v. choline therapy for 3 to 5 hours
[6] = Gastric CA, one i.v. choline therapy for 3 to 5 hours, MainTrac
[7] = Histiocytoma, one i.v. choline therapy for 3 to 5 hours, MainTrac
[8] = Prostate CA, one i.v. choline therapy for 3 to 5 hours, MainTrac
[9] = mean over all tumour types of Table 1, one i.v. choline therapy for 3 to 5 hours, MainTrac

Compound: C[N+](C)(C)CCO [choline]
- Leukocytes, After 4 weeks value ([1]; leukaemia patient blood, 4 weeks after one i.v. choline therapy): 281.60
- Leukocytes, After − before Δ% before (after 4 weeks) ([1]; leukaemia patient blood, 4 weeks after one i.v. choline therapy, compared to the initial value): −8%
- Leukocytes after therapy, mean values ([1]; mean of Table 2 leukaemia measurements, after one i.v. choline therapy for 3 to 5 hours): 228.53
- Leukocytes After − before Difference (Δ), mean values [1, 5]: −25.77
- Leukocytes After − before Δ % before, mean values [1, 5]: −10.00%
- CTCs after therapy ([2]; Gastric CA, after one i.v. choline therapy for 3 to 5 hours, MainTrac): 1.75 million tumour cells
- CTCs After − before Difference (Δ) [2, 6]: −12.25 million tumour cells
- CTCs After − before Δ % before [2, 6]: −87.00%
- CTCs after therapy ([2]; Histiocytoma, after one i.v. choline therapy for 3 to 5 hours, MainTrac): 65.00 million tumour cells
- CTCs After − before Difference (Δ) [2, 7]: −307.50 million tumour cells
- CTCs After − before Δ % before [2, 7]: −82.00%
- CTCs after therapy ([2]; Pancreas CA, after one i.v. choline therapy for 3 to 5 hours, MainTrac): 3.00 million tumour cells and 2.75 million tumour cells
- CTCs after therapy ([2]; Prostate CA, after one i.v. choline therapy for 3 to 5 hours, MainTrac): 8.75 million tumour cells
- CTCs After − before Difference (Δ) [2, 8]: −3.75 million tumour cells
- CTCs After − before Δ % before [2, 8]: −30.00%
- After − before Δ% before (after 4 weeks), mean values ([2]; Table 3 mean of leukaemia patient leukocytes and breast cancer patient CTCs, 4 weeks later): −40.00%
- After − before Δ% before, mean values ([2]; Table 3 mean of leukaemia patient leukocytes and breast cancer patient CTCs, directly after therapy): −30.00%
- MainTrac (CTCs), After 4 weeks value ([2]; breast cancer patient, after another 4 weeks without therapy): 5.25 million tumour cells
- MainTrac (CTCs), After − before Δ% before (after 4 weeks) ([2]; breast cancer patient, after another 4 weeks without therapy, relative to initial value): −72.00%
- CTCs after therapy, mean value ([2]; mean over all tumour types of Table 1, after one i.v. choline therapy for 3 to 5 hours, MainTrac): 9.75 million tumour cells
- CTCs After − before Difference (Δ), mean value [2, 9]: −37 million tumour cells and −37.00 million tumour cells
- CTCs After − before Δ % before, mean value [2, 9]: −54.6%
- changes in vital parameters (RR, pulse, SO2, ECG, temperature) ([3]; 9 tumour patients, during and subsequent to i.v. infusion therapy of 3-5 hours): no patient showed relevant changes in the vital parameters
- tolerability of the infusion therapy ([3]; 9 tumour patients, i.v. infusion for 3-5 hours): very well tolerated
- side effects ([3]; in some cases, on the following day, in general only during few hours, depending on the dose): nausea and increased temperature
- cytosensitivity to choline [4]: up to 95%

— US20130058922A1 (priority 2009, published 2013)
